Assay results from patent publication US5455222A, “1-substituted-5-thiomethylthiocyanato-1H-tetrazoles, compositions containing them and their use as antimicrobial and marine antifouling agents” (The Dow Chemical Company, priority 1994, dated 1995).
In brackets after ≈: the same amount, converted by molar mass.

Legend:
Bacillus subtilis (Bs) = assay: Minimum inhibitory concentration (MIC), bacteria in nutrient agar; assay type: cell-based, Bacillus subtilis ATCC 8473; conditions: 48 hours
Method: (§1) The minimum inhibitory concentration (MIC) for the compounds listed in Table I is determined for 9 bacteria, using nutrient agar, and 7 yeast and fungi, using malt yeast agar. A one percent solution of the test compound is prepared in a mixture of acetone and water.
(§2) Nutrient agar is prepared at pH 6.8, representing a neutral medium, and at pH 8.2, representing an alkaline medium. The nutrient agars are prepared by adding 23 g of nutrient agar to one liter of deionized water. In addition, the alkaline medium is prepared by adjusting a 0.04M solution of N-[tris-(hydroxymethyl)methyl]glycine buffered deionized water with concentrated sodium hydroxide to a pH of 8.5.
(§3) The test tubes containing the agar are cooled in a water bath until the temperature of the agar is 48° C. Then, an appropriate amount of the one percent solution of the test compound is added (except in the controls where no compound is added) to the respective test tubes so that the final concentrations are 500, 250, 100, 50, 25, 10, 5, 2.5, 1.0 and zero parts per million of the test compound in the agar, thus having a known concentration of test compound dispersed therein. The contents of the test tubes are then transferred to respective petri plates. After drying for 24 hours, the petri plates containing nutrient agar are inoculated with bacteria and those containing malt yeast agar are inoculated with yeast and fungi.
(§4) The inoculation with bacteria is accomplished by using the following procedure. Twenty-four hour-cultures of each of the bacteria are prepared by incubating the respective bacteria in tubes containing nutrient broth for 24 hours at 30° C. in a shaker. Dilutions of each of the 24 hour-cultures are made so that nine separate suspensions (one for each of the nine test bacteria) are made, each containing 10^8 colony forming units (CFU) per mL of suspension of a particular bacteria. Aliquots of 0.3 mL of each of the bacterial suspensions are used to fill the individual wells of Steer's Replicator. For each microbial suspension, 0.3 mL was used to fill three wells (i.e., three wells of 0.3 mL each) so that for the nine different bacteria, 27 wells are filled. The Steer's Replicator is then used to inoculate both the neutral and alkaline pH nutrient agar petri plates.
(§5) The inoculated petri plates are incubated at 30° C. for 48 hours and then read to determine if the test compound which is incorporated into the agar prevented growth of the respective bacteria.
(§6) Table II lists the bacteria, yeast and fungi used in the MIC test described above along with their respective American Type Culture Collection (ATCC) identification numbers.
(§7) In Tables III and IV, the MIC values of the compounds described in Table I as compared to the MIC of a standard commercial preservative (with 1-(3-chloroallyl)-3,5,7-triaza-1-azoniaadamantane chloride as the active agent and referred to in Tables III and IV as "STANDARD I") are set forth for the bacteria organisms and yeast/fungi organisms which are listed in Table II.

[1] = system: Enterobacter aerogenes (Ea); assay: as above; assay type: cell-based, Enterobacter aerogenes ATCC 13048; conditions: Klebsiella aerogenes, 48 hours
Method: as §1, §2, §3, §4, §5, §6, §7

Escherichia coli (Ec) = assay: as above; assay type: cell-based, Escherichia coli ATCC 11229; conditions: 48 hours
Method: as §1, §2, §3, §4, §5, §6, §7

[2] = system: Klebsiella pneumoniae (Kp); assay: as above; assay type: cell-based, Klebsiella pneumoniae ATCC 8308; conditions: 48 hours
Method: as §1, §2, §3, §4, §5, §6, §7

Proteus vulgaris (Pv) = assay: as above; assay type: cell-based, Proteus vulgaris ATCC 881; conditions: 48 hours
Method: as §1, §2, §3, §4, §5, §6, §7

[3] = system: Pseudomonas aeruginosa (PRD-10); assay: as above; assay type: cell-based, Pseudomonas aeruginosa ATCC 15442; conditions: 48 hours
Method: as §1, §2, §3, §4, §5, §6, §7

[4] = system: Pseudomonas aeruginosa (Pa); assay: as above; assay type: cell-based, Pseudomonas aeruginosa ATCC 10145; conditions: 48 hours
Method: as §1, §2, §3, §4, §5, §6, §7

[5] = system: Salmonella choleraesuis (Sc); assay: as above; assay type: cell-based, Salmonella choleraesuis ATCC 10708; conditions: Salmonella enterica, 48 hours
Method: as §1, §2, §3, §4, §5, §6, §7

[6] = system: Staphylococcus aureus (Sa); assay: as above; assay type: cell-based, Staphylococcus aureus ATCC 6538; conditions: 48 hours
Method: as §1, §2, §3, §4, §5, §6, §7

Aspergillus niger (An) = assay: Minimum inhibitory concentration (MIC), yeast/fungi in malt yeast agar; assay type: cell-based, Aspergillus niger ATCC 16404; conditions: 30° C., 72 hours for fungi
Method: as §1
(§8) Malt yeast agar is prepared by adding 3 g yeast extract and 45 g malt agar per liter of deionized water. The specific agar is dispensed in 30 mL aliquots into 25×200 mm test tubes, capped and autoclaved for 15 minutes at 115° C.
as §3
(§9) The inoculation with the yeast and fungi is accomplished as follows. Cultures of yeast and fungi are incubated for seven days on malt yeast agar at 30° C. These cultures are used to prepare suspensions by the following procedure. A suspension of each organism is prepared by adding 10 mL of sterile saline and 10 microliters of octylphenoxy polyethoxy ethanol to the agar slant of yeast or fungi. The sterile saline/octylphenoxy polyethoxy ethanol solution is then agitated with a sterile swab to suspend the microorganism grown on the slant. Each resulting suspension is diluted into sterile saline (1 part suspension to 9 parts sterile saline). Aliquots of these dilutions are placed in individual wells of Steer's Replicator and petri plates inoculated as previously described. The petri plates are incubated at 30° C. and read after 48 hours for yeast and 72 hours for fungi.
as §6, §7

Candida albicans (Ca) = assay: as above; assay type: cell-based, Candida albicans ATCC 10231; conditions: 30° C., 48 hours for yeast
Method: as §1, §8, §3, §9, §6, §7

[7] = system: Penicillium chrysogenum (Pc); assay: as above; assay type: cell-based, Penicillium chrysogenum ATCC 9480; conditions: 30° C., 72 hours for fungi
Method: as §1, §8, §3, §9, §6, §7

[8] = system: Saccharomyces cerevisiae (Sc); assay: as above; assay type: cell-based, Saccharomyces cerevisiae ATCC 4105; conditions: 30° C., 48 hours for yeast
Method: as §1, §8, §3, §9, §6, §7

Trichoderma viride (Tv) = assay: as above; assay type: cell-based, Trichoderma viride ATCC 8678; conditions: 30° C., 72 hours for fungi
Method: as §1, §8, §3, §9, §6, §7

[9] = system: Aureobasidium pullulan (Ap); assay: as above; assay type: cell-based, Aureobasidium pullulan ATCC 16622; conditions: 30° C., read after 48 hours for yeast and 72 hours for fungi
Method: as §1, §8, §3, §9, §6, §7

Fusarium oxysporum (Fo) = assay: as above; assay type: cell-based, Fusarium oxysporum ATCC 48112; conditions: 30° C., 72 hours for fungi
Method: as §1, §8, §3, §9, §6, §7

marine organisms = assay: Marine antifouling activity, coated test panels exposed to marine environment; conditions: 6 weeks, scale 10 (completely free of growth) to 0 (completely covered)
Method: Test panels are prepared from clear, rigid polyvinyl chloride film that is 0.381×10^-3 m thick and has one textured surface. The test panels are 0.1524 m by 0.1524 m squares that have 0.00635 m holes punched at corners on 0.127 m centers. A 0.102 square template, with a 0.067 m diameter hole at the center, is attached to the center of the textured surface of the test panels.
A candidate marine antifoulant compound (1.0 g) is stirred into a resinous latex binder (9.0 g). A portion of the compound/binder mixture (1.5 g) is added to the center of the test panel and uniformly spread over the circular area inside the template.
Water is added dropwise as needed to properly spread the compound/binder mixture. The template prevents the compound/binder mixture from spreading beyond the uncovered area. […] The template is then removed. The test panel is then allowed to dry for 8 to 12 hours at room temperature.
Two test panels are prepared for each candidate marine antifoulant compound. Two control test panels are also prepared by only treating with the resinous latex binder. One test panel of each candidate marine […] compound is attached over a white background to the topside of an exposure support apparatus. The second test panel is attached over a black background to the underside of the exposure support apparatus. The exposure support apparatus is placed horizontally 0.0254 m under a marine surface with the white background topside facing up.
After being removed from the exposure support apparatus, each test panel is inspected and rated for marine organism growth on both the treated and untreated areas of the test panel. The marine organisms present on the treated and untreated areas are noted. The presence of algae spores and bacterial slime are noted but not included in rating each test panel. The test panels are rated on a scale from 10 (representing completely free of marine organism growth) to 0 (representing completely covered with marine organism growth).
In addition, test panels were prepared using tributyl tin oxide, a known marine antifouling compound.

In the case of `N#CSCSc1nnnn1-c1ccccc1` [Example I, 1-Phenyl-5-thiomethylthiocyanato-1H-tetrazole], the MIC (Bacillus subtilis (Bs); nutrient agar pH 6.8, 30° C.) is reported as < 10 µg/mL, the MIC (Bacillus subtilis (Bs); nutrient agar pH 8.2, 30° C.) is reported as 50 µg/mL (≈ 201 µM) and the MIC ([1]; nutrient agar pH 6.8, 30° C.) is reported as 250 µg/mL (≈ 1000 µM). It also gave an MIC ([1]; nutrient agar pH 8.2, 30° C.) of 500 µg/mL (≈ 2010 µM), an MIC (Escherichia coli (Ec); nutrient agar pH 6.8, 30° C.) of 50 µg/mL (≈ 201 µM) and an MIC (Escherichia coli (Ec); nutrient agar pH 8.2, 30° C.) of 250 µg/mL (≈ 1000 µM). For the same molecule, the MIC ([2]; nutrient agar pH 6.8, 30° C.) was 100 µg/mL (≈ 401 µM), the MIC ([2]; nutrient agar pH 8.2, 30° C.) was 100 µg/mL (≈ 401 µM) and the MIC (Proteus vulgaris (Pv); nutrient agar pH 6.8, 30° C.) was 25 µg/mL (≈ 100 µM). The MIC (Proteus vulgaris (Pv); nutrient agar pH 8.2, 30° C.) was 100 µg/mL (≈ 401 µM), the MIC ([3]; nutrient agar pH 6.8, 30° C.) was 250 µg/mL (≈ 1000 µM) and the MIC ([3]; nutrient agar pH 8.2, 30° C.) was 250 µg/mL (≈ 1000 µM). For the same molecule, the MIC ([4]; nutrient agar pH 6.8, 30° C.) was 100 µg/mL (≈ 401 µM), the MIC ([4]; nutrient agar pH 8.2, 30° C.) was 100 µg/mL (≈ 401 µM) and the MIC ([5]; nutrient agar pH 6.8, 30° C.) was 100 µg/mL (≈ 401 µM). It also gave an MIC ([5]; nutrient agar pH 8.2, 30° C.) of 250 µg/mL (≈ 1000 µM), an MIC ([6]; nutrient agar pH 6.8, 30° C.) of 25 µg/mL (≈ 100 µM) and an MIC ([6]; nutrient agar pH 8.2, 30° C.) of 50 µg/mL (≈ 201 µM). The MIC (Aspergillus niger (An)) was 5 µg/mL (≈ 20.1 µM), the MIC (Candida albicans (Ca)) was 25 µg/mL (≈ 100 µM) and the MIC [7] was 2.5 µg/mL (≈ 10 µM). It also gave an MIC [8] of 5 µg/mL (≈ 20.1 µM), an MIC (Trichoderma viride (Tv)) of 25 µg/mL (≈ 100 µM) and an MIC [9] of 2.5 µg/mL (≈ 10 µM). For the same molecule, the MIC (Fusarium oxysporum (Fo)) was 10 µg/mL (≈ 40.1 µM), the “Marine Antifouling Rating, 6 Week Test, Bottom Panel” value (marine organisms; bottom panel (black background)) was 9 and the “Marine Antifouling Rating, 6 Week Test, Top Panel” value (marine organisms; top panel (white background)) was 9.
`N#CSCSc1nnnn1-c1ccc(C#N)cc1` [XII, 1-(4-Cyanophenyl)-5-thiomethylthiocyanato-1H-tetrazole] was tested, and the MIC (Bacillus subtilis (Bs); nutrient agar pH 6.8, 30° C.) was < 10 µg/mL, the MIC (Bacillus subtilis (Bs); nutrient agar pH 8.2, 30° C.) was 40 µg/mL (≈ 146 µM) and the MIC ([1]; nutrient agar pH 6.8, 30° C.) was 500 µg/mL (≈ 1820 µM). The MIC ([1]; nutrient agar pH 8.2, 30° C.) was > 400 µg/mL, the MIC (Escherichia coli (Ec); nutrient agar pH 6.8, 30° C.) was 200 µg/mL (≈ 729 µM) and the MIC (Escherichia coli (Ec); nutrient agar pH 8.2, 30° C.) was 400 µg/mL (≈ 1460 µM). For the same molecule, the MIC ([2]; nutrient agar pH 6.8, 30° C.) was 100 µg/mL (≈ 365 µM), the MIC ([2]; nutrient agar pH 8.2, 30° C.) was 100 µg/mL (≈ 365 µM) and the MIC (Proteus vulgaris (Pv); nutrient agar pH 6.8, 30° C.) was 100 µg/mL (≈ 365 µM). For the same molecule, the MIC (Proteus vulgaris (Pv); nutrient agar pH 8.2, 30° C.) was 200 µg/mL (≈ 729 µM), the MIC ([3]; nutrient agar pH 6.8, 30° C.) was 500 µg/mL (≈ 1820 µM) and the MIC ([3]; nutrient agar pH 8.2, 30° C.) was 400 µg/mL (≈ 1460 µM). The MIC ([4]; nutrient agar pH 8.2, 30° C.) was 200 µg/mL (≈ 729 µM), the MIC ([5]; nutrient agar pH 6.8, 30° C.) was 500 µg/mL (≈ 1820 µM) and the MIC ([5]; nutrient agar pH 8.2, 30° C.) was 400 µg/mL (≈ 1460 µM). The MIC ([6]; nutrient agar pH 6.8, 30° C.) was 20 µg/mL (≈ 72.9 µM), the MIC ([6]; nutrient agar pH 8.2, 30° C.) was 100 µg/mL (≈ 365 µM) and the MIC (Aspergillus niger (An)) was < 10 µg/mL. The MIC (Candida albicans (Ca)) was 200 µg/mL (≈ 729 µM), the MIC [7] was < 10 µg/mL and the MIC [8] was 40 µg/mL (≈ 146 µM). For the same molecule, the MIC (Trichoderma viride (Tv)) was 40 µg/mL (≈ 146 µM), the MIC [9] was < 10 µg/mL and the MIC (Fusarium oxysporum (Fo)) was 20 µg/mL (≈ 72.9 µM).
